Experiments:
[1] = test system: nucleotide excision repair in HeLa cells; test: In vivo excision assay with TFIIH antibody immunoprecipitation; type: cell-based, human; details: for substrate for excision repair: when incorporated into the DNA of replicating cells, summary statement
Description: (§1) UV Irradiation and Thymidine analog treatment: HeLa cells were grown to ˜80% confluence, culture medium was removed, cells were washed twice with PBS, and then were placed under a GE germicidal lamp emitting primarily 254-nm UV light (1 J/m^2/sec) connected with a digital timer for 20sec (20 J/m^2 in total). Cells were collected after 1 hour repair. Thymidine analogs were dissolved in sterile PBS (BrdU, EdU, CldU) or DMSO (IdU, F-ara-EdU, AmdU), and then added to cell culture medium at final concentration of 10 μM for indicated times.
(§2) In vivo excision assay: For in vivo excision assay with BrdU antibody, low molecular DNAs isolated by Hirt procedure as previously described (ref 17) were subject to immunoprecipitation with anti-BrdU antibody. For in vivo excision assay with TFIIH antibody, cells were lysed in buffer A (25 mM HEPES at pH7.9, 100 mM KCl, 12 mM MgCl2, 0.5 mM EDTA, 2 mM DTT, 12.5% glycerol, 0.5% NP-40), and excised oligonucleotides complexed with TFIIH protein were immunoprecipitated with TFIIH antibody. Purified oligonucleotides from BrdU IP or TFIIH IP were 3′ end-labeled by terminal deoxynucleotidyl transferase (TdT), α-^32P-ATP with a standard 50 mer oligonucleotide as spike internal control. After phenol-chloroform extraction and ethanol precipitation, labeled DNAs were fractionated with 12% denaturing sequencing gels.

[2] = test system: nucleotide excision repair in HeLa cells; test: In vivo excision assay with anti-BrdU antibody immunoprecipitation; type: cell-based, human; details: for excised oligomers (nominal 26-mer) precipitated by anti-BrdU antibodies: 10 μM thymidine analog, 24 h, no UV
Description: as §1, §2

HeLa cells [3] = test: Slot blot assay of thymidine analog incorporation into genomic DNA; type: cell-based, human; details: 10 μM thymidine analog, 24 h, anti-BrdU antibody
Description: Slot blot assay: HeLa cells were plated in 100 mm plates and treated with 10 μM thymidine analogs for 24 h. Genomic DNA was purified from cell pellets using QIAamp DNA mini kit (Qiagen, 51306). DNA concentrations were determined using a Qubit 3.0 fluorometer. 250 ng of each DNA was diluted with TE buffer (10 mM Tris-HCl pH8, 1 mM EDTA) to a total volume of 250 μL, then boiled at 90° C. for 10 min and cooled in ice water immediately. 250 μL cold ammonium acetate (2 M) was added to neutralize DNA, and then DNA samples were loaded onto nitrocellulose membranes using a slot blot apparatus. Membranes were transferred to a vacuum oven and baked for 1.5 h at 80° C., then blocked with 5% dried milk and incubated with either anti-BrdU antibody (1:1000) or anti-ssDNA antibody (1:5000) as loading control overnight at 4° C. After incubating with a horseradish peroxidase (HRP) labeled secondary antibody (1:10000) for 1 h, chemiluminescent signal was captured using a Bio-Rad ChemiDoc XRS imaging device.

Taq DNA polymerase = Taq DNA polymerase (Thermus aquaticus, UniProt P19821); test: PCR of EdU-substituted genomic DNA with Taq DNA polymerase; type: biochemical; details: genomic DNA of cells treated with EdU for 24 hrs, CSA gene (946bp), 30 cycles
Chain of Taq DNA polymerase (P19821 whole entry): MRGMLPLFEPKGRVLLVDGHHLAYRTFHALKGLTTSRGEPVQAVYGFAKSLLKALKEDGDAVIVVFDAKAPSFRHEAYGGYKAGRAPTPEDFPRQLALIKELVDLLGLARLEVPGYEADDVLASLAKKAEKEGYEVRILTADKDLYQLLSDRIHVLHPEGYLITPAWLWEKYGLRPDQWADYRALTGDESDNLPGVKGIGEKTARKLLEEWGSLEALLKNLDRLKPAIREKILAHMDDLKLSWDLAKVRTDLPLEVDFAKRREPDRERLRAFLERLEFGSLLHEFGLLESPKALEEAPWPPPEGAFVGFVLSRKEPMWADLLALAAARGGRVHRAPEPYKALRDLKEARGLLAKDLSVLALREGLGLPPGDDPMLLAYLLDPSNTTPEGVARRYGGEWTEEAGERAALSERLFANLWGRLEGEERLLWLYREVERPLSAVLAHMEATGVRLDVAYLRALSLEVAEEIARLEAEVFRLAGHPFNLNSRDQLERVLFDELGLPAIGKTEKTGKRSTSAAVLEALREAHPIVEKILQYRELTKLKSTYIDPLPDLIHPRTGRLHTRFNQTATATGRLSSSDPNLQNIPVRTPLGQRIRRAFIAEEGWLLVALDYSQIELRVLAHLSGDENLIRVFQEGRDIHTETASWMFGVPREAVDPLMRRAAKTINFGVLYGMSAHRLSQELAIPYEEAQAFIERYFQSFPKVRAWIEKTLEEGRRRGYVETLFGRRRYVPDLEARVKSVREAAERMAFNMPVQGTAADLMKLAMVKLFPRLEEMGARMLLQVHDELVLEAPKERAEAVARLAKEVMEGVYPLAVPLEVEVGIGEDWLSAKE

HeLa cells [4] = test: XR-seq of EdU excision products; type: cell-based, human; details: for TS/NTS ratio genome-wide: RNA Pol II transcribed genes
[5] = compared with other thymidine analogs used to study replication; cited from earlier work
[6] = test system: primary human glioblastoma cell; details: same dose as Temozolomide; cited from earlier work
[7] = test system: XPA-/-XPC-/-CSB-/- NHF1 cells; test: In vivo excision assay (anti-BrdU IP) in excision repair defective NHF1 cells; type: cell-based, human; details: XPA-/-XPC-/-CSB-/- mutant NHF1, 10 μM EdU, 24 h
Source text: (§3) Cell lines: NHF1 cells, telomerase-immortalized normal human fibroblast monolayers were obtained as described previously (ref 17), XPA-/-XPC-/-CSB-/- triple knock out NHF1 cells were generated using CRISPR Cas9 system with gRNAs (XPA: […] (SEQ ID NO:1); CSB: […] (SEQ ID NO:2); XPC: […] (SEQ ID NO:3)). The HeLa cell line was from the American Type Culture Collection (ATCC). NHF1 and HeLa cells were maintained in Dulbecco's modified Eagle's medium (DMEM) supplemented with 10% fetal bovine serum at 37° C. in a 5% CO2 humidified chamber.
as §2

[8] = test system: Chinese hamster ovary (CHO) AA8 cell free extract excision nuclease; test: In vitro excision assay with mammalian cell-free extract; type: biochemical; details: 140bp duplex substrates, CHO AA8 CFE, three biological replicates
Description: In vitro excision assay: Radiolabeled 140-bp full length undamaged, (6-4) PP, and EdU damaged substrates were prepared, and in vitro excision assay with cell-free extract from Chinese hamster ovary (CHO) AA8 cells were carried out as previously described (ref 39). Briefly, Chinese hamster ovary (CHO) AA8 cell free extract (CFE) was prepared by the method of Manley (ref 42). Linear double-stranded DNA substrates (140bp in length) were prepared with centrally located (6-4) photoproduct or EdU as described previously (ref 43). The sequence of the centrally located 12-mers was […]; SEQ ID NO:4. For the (6-4) substrate, the (6-4) lesion was between T5 and T6. Single EdU was at T6 and, double EdU lesions were at T5 and T6. Unmodified 12mer and EdU containing 12mers were purchased from Integrated DNA Technologies.
The excision reaction with AA8 CFE (75 μg) was conducted with 20 fmol of 140bp substrates, 18 mM HEPES-KOH (pH 7.9), 24 mM KCl, 2 mM MgCl2, 4 mM ATP at 30° C. for 60 minutes as described (ref 35). After the excision reaction, the mixture was incubated with 0.34% SDS and 20 µg/ml Proteinase K at 55-60° C. for 15 minutes, then DNA was extracted with phenol:chloroform:isoamyl alcohol and precipitated with ethanol, resuspended in formamide/dye mixture, and separated with a 10% sequencing gel. Quantification of the signal intensities was done by using ImageJ.

[9] = test system: an osteosarcoma and a glioblastoma cell line; details: cited from earlier work
[10] = in vivo; cited from earlier work
NHF1 wild-type cells = test: In vivo excision assay (anti-BrdU IP) in wild-type NHF1 cells; type: cell-based, human; details: wild type NHF1, 10 μM EdU, 24 h
Source text: as §3, §2

[11] = HeLa cells, 10 μM thymidine analog, 24 h

With `[N-]=[N+]=NCc1cn([C@H]2C[C@H](O)[C@@H](CO)O2)c(=O)[nH]c1=O` [AmdU, 5-(azidomethyl)-2′-deoxyuridine] the “excised by human nucleotide excision repair (TFIIH IP)” value [1, 11] was “only EdU is excised” and the “substrate for excision repair” value [1] was “not to be substrates for excision repair”.

In the case of `O=c1[nH]c(=O)n([C@H]2C[C@H](O)[C@@H](CO)O2)cc1Br` [BrdU, 5-Bromo-2′-deoxyuridine], the “excised oligomers (nominal 26-mer) precipitated by anti-BrdU antibodies” value (“excised oligomers” below) [2] is reported as “not”, the “incorporation into replicating HeLa cells” value (HeLa cells [3]) is reported as “similarly incorporated” and the “substrate for excision repair” value [1] is reported as “not to be substrates for excision repair”.

With `O=c1[nH]c(=O)n([C@H]2C[C@H](O)[C@@H](CO)O2)cc1Cl` [CldU, 5-Chloro-2′-deoxyuridine] the “excised oligomers” value [2] was “not”, the “incorporation into replicating HeLa cells” value (HeLa cells [3]) was “similarly incorporated” and the “substrate for excision repair” value [1] was “not to be substrates for excision repair”.

For `C#Cc1cn([C@H]2C[C@H](O)[C@@H](CO)O2)c(=O)[nH]c1=O` [EdU, 5-Ethynyl-2′-deoxyuridine], the “PCR product from EdU-substituted genomic DNA template” value (Taq DNA polymerase) was “produced full-size fragments”, the “time of peak level of excised EdU-containing fragments” value ([2]; 10 μM EdU for 3 to 48 hrs) was 24 h and the “length of excised oligonucleotides under yellow light and ordinary room light” value ([2]; 10 μM EdU, 24 hours, both light conditions) was 22-30 nts. For the same compound, the “excised oligomers” value [2] was “precipitated oligomers in the form of nominal 26-mer”, the “time that EdU removal continues after pulse labeling” value ([2]; 4 hours EdU, then EdU-free medium, up to 12 hrs) was “at least 12 hrs” and the “XR-seq reads over active promoter, weak promoter, strong enhancer and transcription transition region” value (HeLa cells [4]; 15 ChromHMM chromatin states, 6 h to 48 h) was “relatively high”. For the same compound, the TS/NTS ratio genome-wide (HeLa cells [4]; 6 h EdU treatment) was roughly 2.5, the TS/NTS ratio genome-wide (HeLa cells [4]; 48 h EdU treatment) was roughly 1.2 and the “time at which TS/NTS repair ratio peaks” value (HeLa cells [4]; HACD3, DHFR, and MSH3 genes) was 6 h. For the same compound, the “peak of length distribution of excision products” value (HeLa cells [4]; anti-TFIIH IP, XR-seq) was 25-27 nucleotides, the “repair of EdU at DNase hypersensitivity peaks” value (HeLa cells [4]; gene and intergenic regions) was “significantly enriched” and the toxicity [5] was “highly toxic”. The “apoptosis relative to Temozolomide” value [6] was 3-5 fold, the “strand breaks relative to Temozolomide” value [6] was 3-5 fold and the excision product [7] was “no excision product”. The “in vitro excision (percentage of excision relative to total amount of substrate)” value [8] was “efficient substrate for the mammalian excision nucleases”, the “incorporation into replicating HeLa cells” value (HeLa cells [3]) was “similarly incorporated” and the “suppressing cell proliferation compared with BrdU” value [9] was “outperform BrdU”. The “length of excision products isolated with anti-TFIIH antibodies” value [1, 11] was 25-32 nucleotide, the “substrate for excision repair” value [1] was “substrate for excision repair” and the “crossing of the blood-brain-barrier” value [10] was “crosses the blood-brain-barrier”. For the same compound, the excision product (NHF1 wild-type cells) was “excision product seen”.

In the case of `C#Cc1cn([C@@H]2O[C@H](CO)[C@@H](O)[C@@H]2F)c(=O)[nH]c1=O` [F-ara-EdU, (2′S)-2-Deoxy-2-fluoro-5-ethynyluridine], the “excised by human nucleotide excision repair (TFIIH IP)” value [1, 11] is reported as “only EdU is excised” and the “substrate for excision repair” value [1] is reported as “not to be substrates for excision repair”.

For `O=c1[nH]c(=O)n([C@H]2C[C@H](O)[C@@H](CO)O2)cc1I` [IdU, 5-Iodo-2′-deoxyuridine], the “excised oligomers” value [2] was “not”, the “incorporation into replicating HeLa cells” value (HeLa cells [3]) was “similarly incorporated” and the “substrate for excision repair” value [1] was “not to be substrates for excision repair”.

— patent publication US20260034158A1, “METHODS OF TREATING CANCER OF THE CENTRAL NERVOUS SYSTEM COMPRISING 5-ETHYNYL-2'-DEOXYURIDINE” (The University of North Carolina at Chapel Hill, priority 2022, published 2026)
